Reference: patent US8846739B2, “TGR5 agonists” (Exelixis Patent Company LLC, priority 2009, dated 2014)
pEC50: −log10 of the molar value.

How the values were obtained:
h-TGR5 = molecular target: T1, h-TGR5 (Homo sapiens, UniProt Q8TDU6); test: TGR5 cAMP Assay using Cisbio cAMP Dynamic 2 htrf assay kit; assay type: cell-based; conditions: hTGR5CRE-luc HEK 293 cells
T1 sequence (Q8TDU6 1-330): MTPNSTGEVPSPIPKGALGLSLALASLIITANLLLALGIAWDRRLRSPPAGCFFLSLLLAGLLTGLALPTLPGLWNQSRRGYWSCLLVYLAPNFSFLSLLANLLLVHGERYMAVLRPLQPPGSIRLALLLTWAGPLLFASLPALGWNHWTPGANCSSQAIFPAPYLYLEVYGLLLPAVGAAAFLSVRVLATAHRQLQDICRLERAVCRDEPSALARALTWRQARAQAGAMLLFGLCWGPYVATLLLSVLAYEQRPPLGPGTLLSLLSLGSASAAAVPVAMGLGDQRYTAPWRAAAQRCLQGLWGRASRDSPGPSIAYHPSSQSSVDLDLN
Protocol: Compounds were diluted in DPBS with 5% DMSO (8-point serial dilution by half logs) in a 96-well plate and 1 μL was transferred to a 384-well assay plate in quadruplicate. The d2-cAMP and anti-cAMP Ab-cryptate stock solution were prepared as per the instructions in the Cisbio™ (Bedford, Mass.) kit. Cells (hTGR5CRE-luc HEK 293 and mTGR5CRE-luc HEK 293) were harvested using cell dissociation buffer and resuspended in DPBS. Cells were adjusted to 0.44×10^6 cells/ml followed by addition of IBMX to a final concentration of 0.5 mM. The cells were then mixed with d2-cAMP solution (7.1 mL cells+100 ul d2-cAMP) and 4000 cells (9 μL) were transferred to each well of the 384-well assay plate. Cells without d2-cAMP were added to eight wells as a negative control. The plate was covered and incubated at room temp for 30 min. Then 10 μL of Ab-cryptate solution was added to each well of the assay plate and incubated for 1 hr. The plate was read on an EnVision™ plate reader (Perkin-Elmer, Waltham, Mass.) and the DeltaF value was calculated as per the instructions in the Cisbio™ kit.
(§1) In the following tables, ECso values determined according to the TGR5 cAMP Assay are noted (cAMP); EC50 values determined according to the TGR5/CRE-Luciferiase Assay are noted (CRE-Luc).

human TGR5 (h-TGR5) = molecular target: T2, human TGR5 (h-TGR5) (Homo sapiens, UniProt Q8TDU6); test: TGR5/CRE-Luciferase Assay; assay type: cell-based; conditions: HEK 293 hTGR5/CRE-Luc cells, 6 hours incubation, read-out: CRE-Luc Agonist (EC50)
T2 sequence (Q8TDU6 1-330): T1 sequence (Q8TDU6 1-330)
Protocol: HEK 293 cells stably expressing human TGR5 (h-TGR5) or mouse TGR5 (m-TGR5) were generated from HEK 293 CRE-Luciferase cells. The day before the assay, HEK 293 hTGR5/CRE-Luc cells were plated in DMEM in a 384 well assay plate at a density of 25 k cells/45 μL per well and grown for 18-20 hours. Compounds were serially diluted in DMEM containing 5% DMSO and 5 µL of compound or media alone was transferred to each well and plates were incubated for 6 hours. Following incubation, 30 μL of lysis/luciferase buffer was added to each well. The luciferase activity was then measured on the EnVision™ plate reader and the dose response data was analyzed using ActivityBase.
as §1

pEC50 (h-TGR5) | pEC50 (human TGR5 (h-TGR5)) | Molecule
> 7.00 | > 7.00 | 2-({[3-chloro-5-fluoro-4-({[5-{1-[4-fluoro-3-(methyloxy)phenyl]-1-methylethyl}-1-(4-fluorophenyl)-1H-imidazol-2-yl]thio}methyl)phenyl]carbonyl}amino)-N,N,N-trimethylethanaminium [Example 1d]
> 7.00 | > 7.00 | COc1cc(C(C)(C)c2cnc(SCc3c(F)cc(S(=O)(=O)NCCC[n+]4ccn(C)c4)cc3Cl)n2-c2ccc(F)cc2)ccc1F [Compound 10, 3-(3-(3-chloro-5-fluoro-4-((5-(2-(4-fluoro-3-methoxyphenyl)propan-2-yl)-1-(4-fluorophenyl)-1H-imidazol-2-ylthio)methyl)phenylsulfonamido)propyl)-1-methyl-1H-imidazol-3-ium methanesulfonate]
> 7.00 | > 7.00 | COc1cc(C(C)(C)c2cnc(SCc3c(F)cc(S(=O)(=O)NCCc4ccc[n+](C)c4)cc3Cl)n2-c2ccc(F)cc2)ccc1F [Compound 11, 3-(2-(3-chloro-5-fluoro-4-((5-(2-(4-fluoro-3-methoxyphenyl)propan-2-yl)-1-(4-fluorophenyl)-1H-imidazol-2-ylthio)methyl)phenylsulfonamido)ethyl)-1-methylpyridinium chloride]
> 7.00 | > 7.00 | COc1cc(C(C)(C)c2cnc(SCc3c(F)cc(S(=O)(=O)N[C@H]4CCC[N+](C)(C)C4)cc3Cl)n2-c2ccc(F)cc2)ccc1Cl [Compound 11a, (3S)-3-({[3-chloro-4-({[5-{1-[4-chloro-3-(methyloxy)phenyl]-1-methylethyl}-1-(4-fluorophenyl)-1H-imidazol-2-yl]thio}methyl)-5-fluorophenyl]sulfonyl}amino)-1,1-dimethylpiperidinium]
> 7.00 | > 7.00 | COc1cc(C(C)(C)c2cnc(SCc3c(F)cc(S(=O)(=O)NC4CC[N+](C)(C)CC4)cc3F)n2-c2ccc(F)cc2)ccc1Cl [Compound 11b, 4-({[4-({[5-{1-[4-chloro-3-(methyloxy)phenyl]-1-methylethyl}-1-(4-fluorophenyl)-1H-imidazol-2-yl]thio}methyl)-3,5-difluorophenyl]sulfonyl}amino)-1,1-dimethylpiperidinium]
> 7.00 | > 7.00 | COc1cc(C(C)(C)c2cnc(SCc3c(F)cc(S(=O)(=O)N4CCC([N+](C)(C)C)CC4)cc3F)n2-c2ccc(F)cc2)ccc1Cl [Compound 11c, 1-{[4-({[5-{1-[4-chloro-3-(methyloxy)phenyl]-1-methylethyl}-1-(4-fluorophenyl)-1H-imidazol-2-yl]thio}methyl)-3,5-difluorophenyl]sulfonyl}-N,N,N-trimethylpiperidin-4-aminium]
> 7.00 | > 7.00 | COc1cc(C(C)(C)c2cnc(SCc3c(F)cc(S(=O)(=O)N[C@@H]4CCC[N+](C)(C)C4)cc3F)n2-c2ccc(F)cc2)ccc1Cl [Compound 11d, (3R)-3-({[4-({[5-{1-[4-chloro-3-(methyloxy)phenyl]-1-methylethyl}-1-(4-fluorophenyl)-1H-imidazol-2-yl]thio}methyl)-3,5-difluorophenyl]sulfonyl}amino)-1,1-dimethylpiperidinium]
> 7.00 | > 7.00 | COc1cc(C(C)(C)c2cnc(SCc3c(F)cc(S(=O)(=O)N[C@H]4CCC[N+](C)(C)C4)cc3F)n2-c2ccc(F)cc2)ccc1Cl [Compound 11e, (3S)-3-({[4-({[5-{1-[4-chloro-3-(methyloxy)phenyl]-1-methylethyl}-1-(4-fluorophenyl)-1H-imidazol-2-yl]thio}methyl)-3,5-difluorophenyl]sulfonyl}amino)-1,1-dimethylpiperidinium]
> 7.00 | > 7.00 | COc1cc(C(C)(C)c2cnc(SCc3c(F)cc(S(=O)(=O)N4CCC([N+](C)(C)C)CC4)cc3Cl)n2-c2ccc(F)cc2)ccc1Cl [Compound 11f, 1-{[3-chloro-4-({[5-{1-[4-chloro-3-(methyloxy)phenyl]-1-methylethyl}-1-(4-fluorophenyl)-1H-imidazol-2-yl]thio}methyl)-5-fluorophenyl]sulfonyl}-N,N,N-trimethylpiperidin-4-aminium]
> 7.00 | > 7.00 | COc1cc(C(C)(C)c2cnc(SCc3c(F)cc(S(=O)(=O)N4CCC[C@@H]([N+](C)(C)C)C4)cc3Cl)n2-c2ccc(F)cc2)ccc1Cl [Compound 11g, (3R)-1-{[3-chloro-4-({[5-{1-[4-chloro-3-(methyloxy)phenyl]-1-methylethyl}-1-(4-fluorophenyl)-1H-imidazol-2-yl]thio}methyl)-5-fluorophenyl]sulfonyl}-N,N,N-trimethylpiperidin-3-aminium]
> 7.00 | > 7.00 | COc1cc(C(C)(C)c2cnc(SCc3c(F)cc(S(=O)(=O)N4CCC[C@H]([N+](C)(C)C)C4)cc3Cl)n2-c2ccc(F)cc2)ccc1Cl [Compound 11h, (3S)-1-{[3-chloro-4-({[5-{1-[4-chloro-3-(methyloxy)phenyl]-1-methylethyl}-1-(4-fluorophenyl)-1H-imidazol-2-yl]thio}methyl)-5-fluorophenyl]sulfonyl}-N,N,N-trimethylpiperidin-3-aminium]
> 7.00 | > 7.00 | COc1cc(C(C)(C)c2cnc(SCc3c(F)cc(S(=O)(=O)N4CC[C@@H]([N+](C)(C)C)C4)cc3Cl)n2-c2ccc(F)cc2)ccc1Cl [Compound 11i, (3R)-1-{[3-chloro-4-({[5-{1-[4-chloro-3-(methyloxy)phenyl]-1-methylethyl}-1-(4-fluorophenyl)-1H-imidazol-2-yl]thio}methyl)-5-fluorophenyl]sulfonyl}-N,N,N-trimethylpyrrolidin-3-aminium]
> 7.00 | > 7.00 | CC[N+](C)(C)C1CCN(S(=O)(=O)c2cc(F)c(CSc3ncc(C(C)(C)c4ccc(Cl)c(OC)c4)n3-c3ccc(F)cc3)c(Cl)c2)CC1 [Compound 11j, 1-{[3-chloro-4-({[5-{1-[4-chloro-3-(methyloxy)phenyl]-1-methylethyl}-1-(4-fluorophenyl)-1H-imidazol-2-yl]thio}methyl)-5-fluorophenyl)sulfonyl}-N-ethyl-N,N-dimethylpiperidin-4-aminium]
> 7.00 | > 7.00 | COc1cc(C(C)(C)c2cnc(SCc3c(F)cc(S(=O)(=O)N4CC[N+](C)(C)CC4)cc3Cl)n2-c2ccc(F)cc2)ccc1Cl [Compound 11k, 4-{[3-chloro-4-({[5-{1-[4-chloro-3-(methyloxy)phenyl]-1-methylethyl}-1-(4-fluorophenyl)-1H-imidazol-2-yl]thio}methyl)-5-fluorophenyl]sulfonyl}-1,1-dimethylpiperazin-1-ium]
> 7.00 | > 7.00 | COc1cc(C(C)(C)c2cnc(SCc3c(F)cc(S(=O)(=O)N4CC[C@H]([N+](C)(C)C)C4)cc3Cl)n2-c2ccc(F)cc2)ccc1Cl [Compound 11l, (3S)-1-{[3-chloro-4-({[5-{1-[4-chloro-3-(methyloxy)phenyl]-1-methylethyl}-1-(4-fluorophenyl)-1H-imidazol-2-yl]thio}methyl)-5-fluorophenyl]sulfonyl}-N,N,N-trimethylpyrrolidin-3-aminium]
